PubChem BioAssay (NCI)
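Assay format: 96-well plates, 48-hour exposure. TGI marks complete inhibition of growth.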

Key:
Test in all cases: NCI-60 cell line screen, 48 h
A549 NSCLC = test system: A549 NSCLC
HOP-92 NSCLC = test system: HOP-92 NSCLC
M14 melanoma = test system: M14 melanoma
MDA-N = test system: MDA-N
NCI-H23 lung = test system: NCI-H23 lung
NCI/ADR-RES ovarian = test system: NCI/ADR-RES ovarian
SF-539 CNS = test system: SF-539 CNS
T-47D breast = test system: T-47D breast
UO-31 renal = test system: UO-31 renal
HS 578T breast = test system: HS 578T breast

| SMILES | TGI (A549 NSCLC) | TGI (HOP-92 NSCLC) | TGI (M14 melanoma) | TGI (MDA-N) | TGI (NCI-H23 lung) | TGI (NCI/ADR-RES ovarian) | TGI (SF-539 CNS) | TGI (T-47D breast) | TGI (UO-31 renal) | TGI (HS 578T breast) |
| --- | --- | --- | --- | --- | --- | --- | --- | --- | --- | --- |
| CCCCCCCCC#CCCCCCCCCCC[C@@H]1C(=O)O[C@H](C)[C@@H]1O (tested in a mixture with another compound) | 28.6 µM | 25.1 µM | 41 µM | 79.6 µM | 22.3 µM | 23.8 µM | 42.1 µM | > 100 µM | 35.3 µM | – |
| CC1=CCC[C@H]2[C@](C)(CC3=CC(=O)C(SCC(C)C)=CC3=O)[C@@H](C)CC[C@]12C | 29.9 µM | 17.9 µM | 34.7 µM | – | 25.5 µM | 38.8 µM | 33.2 µM | 12.9 µM | 25.5 µM | – |
| O=[N+]([O-])/C(C(Cl)=C(Cl)Cl)=C(/Nc1cccc2cccnc12)n1nnc2ccccc21 | > 100 µM | – | 25.5 µM | 27.2 µM | 34.7 µM | 53.7 µM | 38.2 µM | 41 µM | 29.9 µM | 33.3 µM |
| C[C@H](C1CC2(C)OC2(C)C(=O)O1)[C@H]1CC[C@H]2[C@@H]3[C@@H]4O[C@@H]4[C@@]4(O)CC=CC(=O)[C@]4(C)[C@H]3CC[C@]12C (some centres undefined) | > 50 µM | > 50 µM | > 50 µM | > 50 µM | > 50 µM | > 50 µM | – | > 50 µM | > 50 µM | – |
| NC(=S)NC/C=C/Cl | > 100 µM | > 100 µM | > 100 µM | > 100 µM | > 100 µM | > 100 µM | – | > 100 µM | > 100 µM | > 100 µM |
| O=c1c2ccccc2nc2ccc3c(Cl)[nH][nH]c3c12 | > 100 µM | > 100 µM | > 100 µM | – | > 100 µM | – | – | – | > 92.2 µM | – |
| CCOC(=O)C1=C(O)c2ccc(C)cc2C(=O)C1=O | > 100 µM | > 100 µM | > 100 µM | – | 98.8 µM | – | > 100 µM | – | > 100 µM | – |
| CCN(CC)C(=O)Cn1c2c(c3ccccc31)CCCC2 | > 100 µM | > 100 µM | > 100 µM | > 100 µM | > 100 µM | > 100 µM | > 100 µM | – | > 100 µM | > 100 µM |
| COc1ccc2cc(C(C)C(=O)N3C(=O)OCC3(C)C)ccc2c1 (centres undefined) | > 100 µM | > 100 µM | > 100 µM | > 100 µM | > 100 µM | > 100 µM | – | > 100 µM | > 100 µM | – |
| CC(C)(C)C1=C(Br)C(O)(C(C)(C)C)OP1(=O)c1ccccc1 (centres undefined) | > 100 µM | > 100 µM | – | > 100 µM | > 100 µM | > 100 µM | > 100 µM | > 100 µM | – | > 100 µM |
| Cn1c(=O)sc2cc(C(=S)N3CCCCC3)ccc21 | – | – | > 100 µM | > 100 µM | > 100 µM | > 100 µM | > 100 µM | – | – | > 100 µM |
| CCCCN(C)/N=N/c1nc[nH]c1C(N)=O | > 100 µM | > 100 µM | – | – | > 100 µM | > 100 µM | > 100 µM | – | > 100 µM | – |
| Cc1c2cccc-2ccc2c3ccccc3n(C(=O)c3ccc(Cl)cc3)c12 | > 100 µM | > 100 µM | > 100 µM | – | > 100 µM | > 100 µM | > 100 µM | – | > 100 µM | > 100 µM |
